This is an account of results in ChEMBL document CHEMBL5046270, “A Selective and Orally Bioavailable Quinoline-6-Carbonitrile-Based Inhibitor of CDK8/19 Mediator Kinase with Tumor-Enriched Pharmacokinetics” (J Med Chem, 2022).

Molecules are shown by their SMILES. Calls of active or inactive are those of the source. The calls are words filed in the database; no cut-off is given here.

One data set addresses CDK8/Cyclin C (Homo sapiens, UniProt P49336). The experiment in a line: Inhibition of kinase tracer 236 binding to His tagged recombinant human CDK8/cyclin C incubated for 60 min FRET based LanthaScreen Eu-Kinase binding assay. It counts as protein-complex assay.
Data set [1] in a line: Inhibition of NF kappa B dependent CDK8/CDK19 in HEK293 cell incubated for 3 hrs in presence of TNF-alpha by Spectra max microtitre plate reader. It counts as cell-based. Conditions: Homo sapiens, HEK293, 3 h.
Data set [2] is described as follows: Inhibition of CDK8/CDK19 in MV4-11 cells and measured after 7 days by Spectra max iD5 microplate reader. The data set is classed as cell-based, Homo sapiens.
Data set [3] has as its system HEK293. The experiment in a line: Downregulation of CDK8/19 in HEK293 cells assessed as reversal of mRNA expression level in MYC gene at 1 uM for 3 hr pretreatment and measured after 3 hr post wash-off by qt-PCR analysis. It counts as functional, cell-based. As to conditions: Homo sapiens, time 6.0 hrs.
For data set [4], the target named is T1, CDK8/Cyclin C (Homo sapiens) (UniProt P49336+P24863). The experiment in a line: Binding affinity to kinase tracer 236 binding to His tagged recombinant human CDK8/cyclinC assessed as rate constant (kon) by TR FRET based assay. The data set is classed as protein-complex assay.
Data set [5] addresses T2, Cyclin-C/Cyclin-dependent kinase 19 (Homo sapiens) (UniProt Q9BWU1+P24863). The experiment in a line: Binding affinity to recombinant human CDK19/cyclinC assessed as rate constant (kon) by TR FRET based assay. The data set is classed as protein-complex assay.
For data set [6], the target named is T1, CDK8/Cyclin C (Homo sapiens). Put plainly: Binding affinity to kinase tracer 236 binding to His tagged recombinant human CDK8/cyclinC assessed as rate constant (koff) by TR FRET based assay. The data set is classed as protein-complex assay.
Data set [7] addresses T2, Cyclin-C/Cyclin-dependent kinase 19 (Homo sapiens). Put plainly: Binding affinity to recombinant human CDK19/cyclinC assessed as rate constant (koff) by TR FRET based assay. The data set is classed as protein-complex assay.
Data set [8] concerns the target T1, CDK8/Cyclin C (Homo sapiens). Put plainly: Binding affinity to kinase tracer 236 binding to His tagged recombinant human CDK8/cyclinC assessed as mean residence time by TR FRET based assay. The data set is classed as protein-complex assay.
The target in data set [9] is T2, Cyclin-C/Cyclin-dependent kinase 19 (Homo sapiens). The experiment in a line: Binding affinity to recombinant human CDK19/cyclinC assessed as mean residence time by TR FRET based assay. It counts as protein-complex assay.
The target in data set [10] is T1, CDK8/Cyclin C (Homo sapiens). The experiment in a line: Binding affinity to kinase tracer 236 binding to His tagged recombinant human CDK8/cyclinC assessed as half life by TR FRET based assay. It counts as protein-complex assay.
Data set [11] concerns the target T2, Cyclin-C/Cyclin-dependent kinase 19 (Homo sapiens). Put plainly: Binding affinity to recombinant human CDK19/cyclinC assessed as half life by TR FRET based assay. The data set is classed as protein-complex assay.
Data set [12] can be described thus: Metabolic stability in human hepatocyte assessed as intrinsic clearance at 2 uM measured per 10^6 by LC-MS/MS analysis. It counts as ADME, cell-based. As to conditions: hepatocytes.
In data set [13] the test system is HEK293. Put plainly: Downregulation of CDK8/19 in HEK293 cells assessed as reversal of mRNA expression level in KCTD12 gene at 1 uM for 3 hr pretreatment and measured after 3 hr post wash-off by qt-PCR analysis. The data set is classed as functional, cell-based. Conditions: Homo sapiens, time 6.0 hrs.

CDK8/Cyclin C, sequence (P49336 whole entry): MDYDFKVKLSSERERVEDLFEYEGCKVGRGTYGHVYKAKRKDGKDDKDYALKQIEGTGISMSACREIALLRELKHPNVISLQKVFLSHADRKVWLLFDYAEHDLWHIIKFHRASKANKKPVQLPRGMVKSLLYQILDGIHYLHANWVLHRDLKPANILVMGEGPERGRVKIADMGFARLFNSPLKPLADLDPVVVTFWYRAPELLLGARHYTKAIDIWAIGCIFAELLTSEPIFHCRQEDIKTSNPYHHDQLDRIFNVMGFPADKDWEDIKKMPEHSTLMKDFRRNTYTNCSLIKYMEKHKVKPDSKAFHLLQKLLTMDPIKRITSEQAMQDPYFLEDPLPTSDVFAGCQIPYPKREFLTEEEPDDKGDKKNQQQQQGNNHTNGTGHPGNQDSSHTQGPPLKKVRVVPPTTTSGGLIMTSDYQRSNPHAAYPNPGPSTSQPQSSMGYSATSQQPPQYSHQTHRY
CDK8/Cyclin C, sequence (P24863 whole entry, further chain): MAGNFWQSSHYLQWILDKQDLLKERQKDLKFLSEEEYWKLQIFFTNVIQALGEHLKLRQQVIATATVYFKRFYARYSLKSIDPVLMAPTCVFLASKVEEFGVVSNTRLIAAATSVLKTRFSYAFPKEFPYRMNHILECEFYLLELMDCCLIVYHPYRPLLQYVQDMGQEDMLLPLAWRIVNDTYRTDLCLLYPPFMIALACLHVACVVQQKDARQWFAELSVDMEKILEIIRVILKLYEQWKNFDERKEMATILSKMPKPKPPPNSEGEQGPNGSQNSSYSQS

On to `NC(=O)c1ccc2nccc(NCCc3ccccc3)c2c1`, for which the IC50 was over 1000 nM on CDK8/Cyclin C and over 5000 nM in [1].

Turning to `CC(=O)N1CCN(C(=O)c2ccc3cc(CCNc4ccnc5ccc(C#N)cc45)ccc3c2)CC1`, the results for the IC50 (on CDK8/Cyclin C; in data set [1]; in data set [2]) were 12 nM, 184 nM and 297 nM, respectively.

`N#Cc1ccc2nccc(NCCc3ccc4cc(C(=O)N5CCN(CCCN)CC5)ccc4c3)c2c1`: the IC50 came out at 6.5 nM on CDK8/Cyclin C, 870 nM in [1] and 305 nM in data set [2].

In the case of `CN(CCCN)C(=O)c1ccc2cc(CCNc3ccnc4ccc(C#N)cc34)ccc2c1`, the IC50 at CDK8/Cyclin C was 9.2 nM; in data set [1] it was 118 nM; in data set [2] it was 297 nM.

As to `N#Cc1ccc2nccc(NCCc3ccc4cc(C(=O)N5CCS(=N)(=O)CC5)ccc4c3)c2c1`, the IC50 on CDK8/Cyclin C is 4.6 nM; in [1] it was 244 nM; in data set [2] it was 271 nM.

In the case of `CC(C)(C)OC(=O)N1CCN(C(=O)c2ccc3cc(CCNc4ccnc5ccc(C#N)cc45)ccc3c2)CC1`, the 50% inhibitory concentration (IC50) on CDK8/Cyclin C came to 19 nM; in [1], 137 nM; in data set [2], 209 nM.

As to `N#Cc1ccc2nccc(NCCc3ccc4cc(C(=O)N5CC[S+]([O-])CC5)ccc4c3)c2c1`, the IC50 at CDK8/Cyclin C was 5.8 nM; in [1], 160 nM; in data set [2], 222 nM.

With `Brc1ccc2nccc(NCCc3ccccc3)c2c1`, the figures for the IC50 (on CDK8/Cyclin C; in data set [1]) were 183 nM and over 5000 nM, respectively.

With `N#Cc1ccc2nccc(NCCc3ccc4cc(C(=O)N5CCSCC5)ccc4c3)c2c1`, the values for the IC50 (on CDK8/Cyclin C; in data set [1]; in data set [2]) were 9.1 nM, 138 nM and 93 nM, respectively.

In the case of `CC(C)(C)OC(=O)NCCCN1CCN(C(=O)c2ccc3cc(CCNc4ccnc5ccc(C#N)cc45)ccc3c2)CC1`, the IC50 on CDK8/Cyclin C was determined as 8.1 nM; in data set [1], 81 nM; in data set [2], 167 nM.

Regarding `FC(F)(F)c1ccc2nccc(NCCc3ccccc3)c2c1`, the IC50 at CDK8/Cyclin C is 356 nM; in [1], over 5000 nM.

With `Ic1ccc2nccc(NCCc3ccccc3)c2c1`, the results for the IC50 (on CDK8/Cyclin C; in data set [1]) were 212 nM and over 5000 nM, respectively.

As for `Nc1ccc2nccc(NCCc3ccccc3)c2c1`, the IC50 was over 1000 nM on CDK8/Cyclin C and over 5000 nM in [1].

As for `Clc1ccc2nccc(NCCc3ccccc3)c2c1`, the IC50 is 44 nM at CDK8/Cyclin C and over 5000 nM in [1].

For the molecule `CN(CCCNC(=O)OC(C)(C)C)C(=O)c1ccc2cc(CCNc3ccnc4ccc(C#N)cc34)ccc2c1`, the IC50 at CDK8/Cyclin C worked out at 9.3 nM; in data set [1], 208 nM; in data set [2] it was 173 nM.

In the case of `N#Cc1ccc2ncnc(NCCc3ccccc3)c2c1`, the IC50 at CDK8/Cyclin C was found to be 35 nM; in data set [1], 349 nM; in data set [2] it was 994 nM.

In the case of `CN1CCN(C(=O)c2ccc3cc(CCNc4ncnc5ccc(C#N)cc45)ccc3c2)CC1` [SENEXIN B], the outcome in the data set on HEK293 [3] and in the data set on HEK293 [13] was inactive. For the same molecule, the K is 1.65 10^6/M/s in data set [4], 2.13 10^6/M/s in [5], 0.00325 s⁻¹ in [6] and 0.00628 s⁻¹ in data set [7]. Moreover, the MRT in data set [8] came to 5.13 min; in data set [9], 2.65 min. The T1/2 was determined as 3.55 min in data set [10] and 1.84 min in data set [11]. Moreover, the CLH in data set [12] worked out at 0.0198 mL/min.

Regarding `c1ccc(CCNc2ccnc3ccccc23)cc1`, the IC50 on CDK8/Cyclin C was over 1000 nM; in data set [1], over 5000 nM.

Turning to `CNC(=O)c1ccc2nccc(NCCc3ccccc3)c2c1`, the IC50 on CDK8/Cyclin C was over 1000 nM; in data set [1], over 5000 nM.
